Results on eight compounds are retold here after US7968556B2, “Heteroaryl compounds, compositions thereof, and methods of treatment therewith” (Signal Pharmaceuticals, LLC, priority 2006, dated 2011).

One data set deals with T1, Syk (Homo sapiens, UniProt P43405).
T1 construct: purchased Cama Biosciences (so in the source)
The data set can be described thus: Syk HTRF Assay. In kind it is biochemical. How it is done:
5 μl/well DMSO is added to Column 2 Wells A-0 and 29.5 μl to well P2 of Greiner 384-well polypropylene plate. 20 μl/well DMSO is added to Columns 1 and 3-12.
25 mM compound solutions are prepared by the addition of 25 μl of 30 mM compound to Column 2 and 0.5 μl 30 mM reference control to well P2.
Serial dilution is then performed by the following steps: (i) compounds in Column 2 are mixed by pipetting 20 μl up and down 6×; (ii) 10 μl/well compounds in DMSO are transferred from one column to the next column for Columns 2-11; (iii) wells are mixed by pipetting 20 μl up and down 6×; (iv) tips washed 3×25 μl DMSO, 2×25 μl next DMSO.
(§1) The following buffers are prepared:
Dilution Buffer: 50 mM HEPES pH 7.6; 1 mM DTT; 10 mM MgCl2; 0.01% Triton X100; 0.01% BSA; 0.1 mM EDTA.
Enzyme Mix in Dilution Buffer: 8.621 ng/ml Syk (Cama Biosciences 08-176).
Start Mix in Dilution Buffer: 87.5 μM ATP; 80 nM Substrate Peptide (American Peptide Company 332722).
14.5 μl/well Enzyme Mix or Dilution Buffer (Background Controls) is added to Costar 384-well black plates.
Compound addition and mixture is performed by the following steps: (i) 0.5 μl/well DMSO/compounds in DMSO transferred from Greiner 384-well polypropylene plate to left half of assay plate containing 14.5 μl/well Enzyme Mix and Dilution Buffer; (ii) Mix by pipetting 10 μl up and down 4×; (iii) tips are washed 4×10 μl in DMSO, 2×20 μl in other DMSO; (iv) steps i-iii are repeated with transfer to right half of assay plate; (v) steps i-iv are repeated with each compound/assay plate until all plates are completed.
10 μl/well Start Mix is added and incubated at room temperature on shaker for 2 minutes (1 hour total reaction time).
Stop Solution in Dilution Buffer: 120 mM EDTA
Antibody Mix in Dilution Buffer: 4.86 μg/ml DyLight 647 Streptavidin (Pierce 21824); 1 μg/ml Lance Eu-Anti-Phosphotyrosine (PerkinElmer AD0069).
5 μl/well[…] is added and incubated at room temperature on shaker for 2 minutes.
[…] Antibody Mix is added and Incubated at room temperature on shaker for 2 minutes (4 hours to overnight total time).
Plates are read at 665 nm and 620 nm emission on Analyst GT protocol HTRF_SP_A or EnVision protocol Steve's TR-FRET.

Another data set addresses mTOR (Homo sapiens, UniProt P42345). Description: mTOR HTR-FRET Assay. The class given is biochemical. Put shortly: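 TOR enzyme fraction preincubated 30 min at room temperature with compound, then reaction started with GST-p70S6 kinase fragment substrate (97 nM working stock) plus ATP/Mn2+ and run 2 h at room temperature in Tris pH 7.4 buffer. Stopped with EDTA; phospho-substrate detected by HTRF antibody reagent after 5 h to overnight.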

The next data set has as its target T2, Tyk2 (Homo sapiens, UniProt P29597).
T2 construct: 450 ng/ml TYK2 KD (Cama Biosciences 08-147 Lot 06CBS-3022D); purchased Cama Biosciences (so in the source)
T2 sequence (P29597 897-1176 limits assumed): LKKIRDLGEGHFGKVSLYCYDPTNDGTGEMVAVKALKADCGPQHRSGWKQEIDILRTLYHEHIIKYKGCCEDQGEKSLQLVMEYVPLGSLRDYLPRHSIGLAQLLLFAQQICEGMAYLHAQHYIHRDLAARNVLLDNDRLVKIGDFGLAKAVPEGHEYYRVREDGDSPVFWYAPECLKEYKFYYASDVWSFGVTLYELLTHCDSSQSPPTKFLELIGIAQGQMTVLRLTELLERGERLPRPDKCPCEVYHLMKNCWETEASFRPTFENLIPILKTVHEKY
Description: Tyk2 HTRF Assay. In kind it is biochemical. The procedure: The following is an example of an assay that can be used to determine the Tyk2 inhibitory activity of a test compound.
25 μl/well DMSO is added to Columns 2 and 14 (except 28.5 μl is added to well P14 of Greiner 384-well polypropylene plate). 20 μl/well DMSO is added to all remaining wells.
5 mM compound solutions are added by addition of 5 μl of 30 mM compound to 25 μl DMSO in Columns 2 and 14 of plate. 1.5 mM reference control is prepared by addition of 1.5 μl of 30 mM JAK3 Inhibitor VI to 28.5 μl DMSO in Well P14.
Serial dilution is then performed by the following steps: (i) Compounds in Column 2 are mixed by pipetting 20 μl up and down 6X; (ii) 10 μl/well compounds in DMSO are transferred from one column to the next column for Columns 2-11; (iii) wells are mixed by pipetting 20 μl up and down 6×; (iv) tips are washed 3×25 μl DMSO, 2×25 μl next DMSO; (v) steps i-iv repeated for Columns 14-23.
as §1
Assay Buffer: 50 mM HEPES pH 7.6; 1 mM DTT; 10 mM MgCl2; 0.01% Triton X100; 0.01% BSA; and 0.1 mM EDTA.
Kinase in Assay Buffer: 450 ng/ml TYK2 KD (Cama Biosciences 08-147 Lot 06CBS-3022D).
Substrate/Detection Mixture (1×ATP) in Assay Buffer: 188 nM DyLight 647-Streptavidin (Pierce 21824); 5 μM Biotin-EQEDEPEGDYFEWLE (Lyn Substrate Peptide); 750 ng/ml Eu-anti-phospho-Tyrosine (PerkinElmer AD0069); 62.5 μM ATP; 80 nM Substrate Peptide (American Peptide Company 332722).
Substrate/Detection Mixture (20×ATP) in Assay Buffer: 188 nM DyLight 647-Streptavidin; 5 μM Biotin-EQEDEPEGDYFEWLE; 750 ng/ml Eu-anti-phospho-Tyrosine; 1250 μM ATP; 80 nM Substrate Peptide.
14.5 μl/well Enzyme Mix or Dilution Buffer (Background Controls) is added to Costar 384 well black plates.
Compound addition and mixture is performed by the following steps: (i) 0.5 μl/well DMSO/compounds in DMSO is transferred from Greiner 384-well polypropylene plate to a plate containing 14.5 μl/well Enzyme Mix and Dilution Buffer; (ii) mixed by pipetting 10 μl up and down 4×; (iii) tips are washed 4×10 μl in DMSO, 2×20 μl in other DMSO; (iv) steps i-iii are repeated until all plates are completed.
10 μl/well Substrate/Detection Mixtures is added and incubated at room temperature 2 hours (on shaker for first 2+ minutes).
10 μl/well 50 mM EDTA/0.01% Triton X100 is added and incubated >15 minutes at room temperature (on shaker for first 2+ minutes).
Plates are read at 665 nm and 620 nm emission on Analyst GT protocol HTRF_SP_A (Counts= 665/620×10000).
(TR-FRET usually uses a lanthanide donor and a delayed reading to cut background.)

In the case of `COc1ccccc1-n1c(=O)[nH]c2c(C(N)=O)nc(-c3cccc(N)c3)nc21` [Compound 38, 2-(3-aminophenyl)-9-(2-methoxyphenyl)-8-oxo-8,9-dihydro-7H-purine-6-carboxamide], the melting point – broadly, the temperature of the solid-liquid transition – fell in the range of 284 to 285 °C. The IC50 (commonly the point on the concentration scale where inhibition reaches its midpoint) on Syk was greater than 30 µM.
On to `CNC(=O)c1nc(-c2cccc(O)c2)nc2c1[nH]c(=O)n2-c1ccccc1OC` [Compound 42, [2-(3-Hydroxyphenyl)-9-(2-methoxyphenyl)-8-oxo(7-hydropurin-6-yl)]-N-methylcarbox-amide], for which the melting point turned out to be 339 °C. This compound returned an IC50 against mTOR greater than 30 µM. Moreover, the IC50 on Tyk2 was greater than 30 µM.
Compound `NC(=O)c1nc(-c2cccc(O)c2)nc2c1[nH]c(=O)n2[C@H]1CC[C@H](O)CC1` [Compound 47, 9-(trans-4-Hydroxycyclohexyl)-2-(3-hydroxyphenyl)-8-oxo-8,9-dihydro-7H-purine-6-carboxamide] displayed a melting point of 366 to 368 °C. The IC50 on mTOR was in the range of 0.1 to 5 µM. For the same compound, at Tyk2, the IC50 lay in the range of 10.1 to 20 µM.
Compound `COc1ccccc1-n1c(=O)[nH]c2c(C(N)=O)nc(-c3cccc(O)c3Cl)nc21` [Compound 54, 2-(2-Chloro-3-hydroxyphenyl)-9-(2-methoxyphenyl)-8-oxo-7-hydropurine-6-carbox amide] registered a melting point of 331 to 334 °C. This compound also returned an IC50 against mTOR of 0.1 to 5 µM. This compound also had an IC50 against Syk of 0.1 to 5 µM.
`NC(=O)c1nc(-c2cccc(O)c2)nc2c1[nH]c(=O)n2-c1c(Cl)cccc1Cl` [Compound 69, 9-(2,6-Dichlorophenyl)-2-(3-hydroxyphenyl)-8-oxo-7-hydropurine-6-carboxamide]: the melting point lay in the range of 290 to 292 °C. At mTOR, the IC50 fell in the range of 0.1 to 5 µM. The compound further had an IC50 against Tyk2 of 0.1 to 5 µM.
On to `COc1ccccc1-n1c(=O)[nH]c2c(C(N)=O)nc(-c3cccc(O)c3F)nc21` [Compound 77, 2-(2-Fluoro-3-hydroxyphenyl)-9-(2-methoxyphenyl)-8-oxo-7-hydropurine-6-carbox-amide], for which the melting point was greater than 300 °C. This compound also yielded an IC50 at mTOR of 0.1 to 5 µM. The same compound displayed an IC50 at Tyk2 of 0.1 to 5 µM.
Compound `COc1ccccc1-n1c(=O)[nH]c2c(C(N)=O)nc(-c3cccc4[nH]cnc34)nc21` [Compound 99, 2-(1H-benzo[d]imidazol-4-yl)-9-(2-methoxyphenyl)-8-oxo-8,9-dihydro-7H-purine-6-carboxamide] gave a melting point of 312 °C. For the same compound, on mTOR, the IC50 was greater than 30 µM. The compound further displayed an IC50 on Tyk2 of 0.1 to 5 µM.
Take `NC(=O)c1nc(-c2ccc3nc[nH]c3c2)nc2c1[nH]c(=O)n2-c1ccccc1F` [Compound 101, 2-(1H-benzo[d]imidazol-6-yl)-9-(2-fluorophenyl)-8-oxo-8,9-dihydro-7H-purine-6-carboxamide]: the melting point came to 278 °C. Moreover, the IC50 on mTOR was in the range of 0.1 to 5 µM. At Syk, this compound displayed a concentration for half-maximal inhibition (IC50) of 10.1 to 20 µM.
